Test results taken from US9283222B2 (priority 2006, dated 2016).

These compounds were tested against Recombinant Human Poly(ADP-Ribose) Polymerase (PARP), PARP-1 (Homo sapiens (Human), UniProt P09874). Settings: read-out: PARP-1 (Ki); Table 1; text calls the values EC50s.
Recombinant Human Poly(ADP-Ribose) Polymerase (PARP), PARP-1, sequence (P09874 whole entry): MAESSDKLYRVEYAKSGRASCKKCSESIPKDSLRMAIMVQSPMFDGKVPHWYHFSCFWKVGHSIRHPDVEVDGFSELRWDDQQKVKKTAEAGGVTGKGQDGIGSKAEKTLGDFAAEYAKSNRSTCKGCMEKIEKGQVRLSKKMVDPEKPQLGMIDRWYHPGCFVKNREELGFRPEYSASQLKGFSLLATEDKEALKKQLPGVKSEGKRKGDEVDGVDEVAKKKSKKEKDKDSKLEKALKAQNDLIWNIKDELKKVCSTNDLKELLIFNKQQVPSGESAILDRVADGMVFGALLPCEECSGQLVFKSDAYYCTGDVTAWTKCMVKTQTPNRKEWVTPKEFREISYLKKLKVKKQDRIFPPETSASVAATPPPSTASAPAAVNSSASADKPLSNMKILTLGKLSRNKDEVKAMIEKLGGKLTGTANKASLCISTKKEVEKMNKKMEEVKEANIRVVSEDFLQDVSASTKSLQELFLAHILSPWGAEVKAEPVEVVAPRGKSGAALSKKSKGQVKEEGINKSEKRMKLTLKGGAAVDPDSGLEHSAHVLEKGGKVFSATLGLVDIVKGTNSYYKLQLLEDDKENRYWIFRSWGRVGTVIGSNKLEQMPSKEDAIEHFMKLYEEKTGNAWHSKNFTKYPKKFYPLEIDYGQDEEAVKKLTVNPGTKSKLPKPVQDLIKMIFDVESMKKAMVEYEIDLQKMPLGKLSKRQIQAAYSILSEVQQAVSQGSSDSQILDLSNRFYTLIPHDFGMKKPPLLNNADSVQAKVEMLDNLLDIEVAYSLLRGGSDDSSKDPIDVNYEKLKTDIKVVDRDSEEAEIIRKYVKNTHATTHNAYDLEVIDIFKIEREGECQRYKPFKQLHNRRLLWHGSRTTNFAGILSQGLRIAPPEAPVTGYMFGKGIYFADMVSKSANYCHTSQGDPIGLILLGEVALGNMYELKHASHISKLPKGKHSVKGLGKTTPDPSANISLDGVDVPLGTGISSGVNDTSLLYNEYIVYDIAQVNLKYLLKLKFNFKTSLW

Structure (SMILES) | Ki
O=C(Nc1cccc(Cc2n[nH]c(=O)c3c2CCCC3)c1)c1ccccc1C(=O)c1ccccc1 [Example 241, 2-benzoyl-N-(3-((4-oxo-3,4,5,6,7,8-hexahydrophthalazin-1-yl)methyl)phenyl)benzamide] | 1450 nM
O=C(Nc1cccc(Cc2n[nH]c(=O)c3c2CCCC3)c1)c1ccccc1CCc1ccccc1 [Example 242, N-(3-((4-oxo-3,4,5,6,7,8-hexahydrophthalazin-1-yl)methyl)phenyl)-2-(2-phenylethyl)benzamide] | 610 nM
O=C(Nc1cccc(Cc2n[nH]c(=O)c3c2CCCC3)c1)c1cc(Br)ccc1Cl [Example 243, 5-bromo-2-chloro-N-(3-((4-oxo-3,4,5,6,7,8-hexahydrophthalazin-1-yl)methyl)phenyl)benzamide] | 92 nM
Cc1ccc(C(=O)c2ccccc2C(=O)Nc2cccc(Cc3n[nH]c(=O)c4c3CCCC4)c2)cc1 [Example 244, 2-(4-methylbenzoyl)-N-(3-((4-oxo-3,4,5,6,7,8-hexahydrophthalazin-1-yl)methyl)phenyl)benzamide] | 2340 nM
O=C(Nc1cccc(Cc2n[nH]c(=O)c3c2CCCC3)c1)c1ccccc1I [Example 245, 2-iodo-N-(3-((4-oxo-3,4,5,6,7,8-hexahydrophthalazin-1-yl)methyl)phenyl)benzamide] | 963 nM
O=C(Nc1cccc(Cc2n[nH]c(=O)c3c2CCCC3)c1)c1cccc(I)c1 [Example 246, 3-iodo-N-(3-((4-oxo-3,4,5,6,7,8-hexahydrophthalazin-1-yl)methyl)phenyl)benzamide] | 52 nM
O=C(Nc1cccc(Cc2n[nH]c(=O)c3c2CCCC3)c1)c1ccc(I)cc1 [Example 247, 4-iodo-N-(3-((4-oxo-3,4,5,6,7,8-hexahydrophthalazin-1-yl)methyl)phenyl)benzamide] | 48 nM
CC(=O)Nc1cccc(-c2cc(Cc3n[nH]c(=O)c4c3CCCC4)ccc2F)c1 [Example 248] | 2 nM
CS(=O)(=O)c1cccc(-c2cc(Cc3n[nH]c(=O)c4c3CCCC4)ccc2F)c1 [Example 249, 4-((6-fluoro-3′-(methylsulfonyl)-1,1′-biphenyl-3-yl)methyl)-5,6,7,8-tetrahydrophthalazin-1(2H)-one] | 85 nM
O=C(c1cccc(-c2cc(Cc3n[nH]c(=O)c4c3CCCC4)ccc2F)c1)N1CCCC1 [Example 250, 4-((6-fluoro-3′-(pyrrolidin-1-ylcarbonyl)-1,1′-biphenyl-3-yl)methyl)-5,6,7,8-tetrahydrophthalazin-1(2H)-one] | 210 nM
O=C(c1ccc(-c2cc(Cc3n[nH]c(=O)c4c3CCCC4)ccc2F)cc1)N1CCCC1 [Example 251, 4-((6-fluoro-4′-(pyrrolidin-1-ylcarbonyl)-1,1′-biphenyl-3-yl)methyl)-5,6,7,8-tetrahydrophthalazin-1(2H)-one] | 446 nM
NC(=O)c1cccc(-c2cc(Cc3n[nH]c(=O)c4c3CCCC4)ccc2F)c1 [Example 252, 2′-fluoro-5′-((4-oxo-3,4,5,6,7,8-hexahydrophthalazin-1-yl)methyl)-1,1′-biphenyl-3-carboxamide] | 19 nM
CN(C)C(=O)c1ccc(-c2cc(Cc3n[nH]c(=O)c4c3CCCC4)ccc2F)cc1 [Example 253, 2′-fluoro-N,N-dimethyl-5′-((4-oxo-3,4,5,6,7,8-hexahydrophthalazin-1-yl)methyl)-1,1′-biphenyl-4-carboxamide] | 229 nM
O=c1[nH]nc(CCc2ccccc2)c2c1CCCC2 [Example 255, 4-(2-phenylethyl)-5,6,7,8-tetrahydrophthalazin-1(2H)-one] | 335 nM
CC(C)(C)OC(=O)N1CCN(C(=O)OCc2ccccc2)CC1Cc1n[nH]c(=O)c2c1CCCC2 (stereo not drawn) [Example 258, 4-benzyl 1-tert-butyl 2-((4-oxo-3,4,5,6,7,8-hexahydrophthalazin-1-yl)methyl)piperazine-1,4-dicarboxylate] | 1770 nM
Nc1cccc(CCc2n[nH]c(=O)c3c2CCCC3)c1 [Example 260, 4-(2-(3-aminophenyl)ethyl)-5,6,7,8-tetrahydrophthalazin-1(2H)-one] | 243 nM
O=c1[nH]nc(CC2CNCCN2)c2c1CCCC2 (stereo not drawn) [Example 261, 4-(piperazin-2-ylmethyl)-5,6,7,8-tetrahydrophthalazin-1(2H)-one] | 556 nM
O=C1CCCN1c1cccc(CCc2n[nH]c(=O)c3c2CCCC3)c1 [Example 262, 4-(2-(3-(2-oxopyrrolidin-1-yl)phenyl)ethyl)-5,6,7,8-tetrahydrophthalazin-1(2H)-one] | 304 nM
O=C(COc1ccccc1)Nc1cccc(CCc2n[nH]c(=O)c3c2CCCC3)c1 [Example 263, N-(3-(2-(4-oxo-3,4,5,6,7,8-hexahydrophthalazin-1-yl)ethyl)phenyl)-2-phenoxyacetamide] | 144 nM
O=C(c1cccc(-c2cc(CCc3n[nH]c(=O)c4c3CCCC4)ccc2F)c1)N1CCOCC1 [Example 264, 4-(2-(6-fluoro-3′-(morpholin-4-ylcarbonyl)-1,1′-biphenyl-3-yl)ethyl)-5,6,7,8-tetrahydrophthalazin-1(2H)-one] | 662 nM

Structure (SMILES) | Ki
COC(=O)c1cccc(CCc2n[nH]c(=O)c3c2CCCC3)c1 [Example 265, methyl 3-(2-(4-oxo-3,4,5,6,7,8-hexahydrophthalazin-1-yl)ethyl)benzoate] | 58 nM
O=C(c1ccc(-c2cc(CCc3n[nH]c(=O)c4c3CCCC4)ccc2F)cc1)N1CCOCC1 [Example 267, 4-(2-(6-fluoro-4′-(morpholin-4-ylcarbonyl)-1,1′-biphenyl-3-yl)ethyl)-5,6,7,8-tetrahydrophthalazin-1(2H)-one] | 534 nM
O=C(c1ccccc1-c1cc(CCc2n[nH]c(=O)c3c2CCCC3)ccc1F)N1CCCC1 [Example 268, 4-(2-(6-fluoro-2′-(pyrrolidin-1-ylcarbonyl)-1,1′-biphenyl-3-yl)ethyl)-5,6,7,8-tetrahydrophthalazin-1(2H)-one] | 638 nM
O=C(c1cccc(-c2cc(CCc3n[nH]c(=O)c4c3CCCC4)ccc2F)c1)N1CCCC1 [Example 269, 4-(2-(6-fluoro-3′-(pyrrolidin-1-ylcarbonyl)-1,1′-biphenyl-3-yl)ethyl)-5,6,7,8-tetrahydrophthalazin-1(2H)-one] | 1050 nM
O=C(NC1CC1)c1cccc(-c2cc(CCc3n[nH]c(=O)c4c3CCCC4)ccc2F)c1 [Example 270, N-cyclopropyl-2′-fluoro-5′-(2-(4-oxo-3,4,5,6,7,8-hexahydrophthalazin-1-yl)ethyl)-1,1′-biphenyl-3-carboxamide] | 487 nM
CN(C)CCNC(=O)c1cccc(-c2cc(CCc3n[nH]c(=O)c4c3CCCC4)ccc2F)c1 [Example 271, N-(2-(dimethylamino)ethyl)-2′-fluoro-5′-(2-(4-oxo-3,4,5,6,7,8-hexahydrophthalazin-1-yl)ethyl)-1,1′-biphenyl-3-carboxamide] | 1140 nM
NC(=O)c1cccc(-c2cc(CCc3n[nH]c(=O)c4c3CCCC4)ccc2F)c1 [Example 272, 2′-fluoro-5′-(2-(4-oxo-3,4,5,6,7,8-hexahydrophthalazin-1-yl)ethyl)-1,1′-biphenyl-3-carboxamide] | 204 nM
CS(=O)(=O)Nc1cccc(-c2cc(CCc3n[nH]c(=O)c4c3CCCC4)ccc2F)c1 [Example 273, N-(2′-fluoro-5′-(2-(4-oxo-3,4,5,6,7,8-hexahydrophthalazin-1-yl)ethyl)-1,1′-biphenyl-3-yl)methanesulfonamide] | 257 nM
CC(=O)Nc1cccc(-c2cc(CCc3n[nH]c(=O)c4c3CCCC4)ccc2F)c1 [Example 274, N-(2′-fluoro-5′-(2-(4-oxo-3,4,5,6,7,8-hexahydrophthalazin-1-yl)ethyl)-1,1′-biphenyl-3-yl)acetamide] | 222 nM
CC(Cc1n[nH]c(=O)c2c1CCCC2)c1ccc(F)c(-c2cccc(C(=O)N3CCOCC3)c2)c1 (stereo not drawn) [Example 275, 4-(2-(6-fluoro-3′-(morpholin-4-ylcarbonyl)-1,1′-biphenyl-3-yl)propyl)-5,6,7,8-tetrahydrophthalazin-1(2H)-one] | 471 nM
CC(Cc1n[nH]c(=O)c2c1CCCC2)c1ccc(F)c(-c2cccc(C(=O)N3CCCC3)c2)c1 (stereo not drawn) [Example 276, 4-(2-(6-fluoro-3′-(pyrrolidin-1-ylcarbonyl)-1,1′-biphenyl-3-yl)propyl)-5,6,7,8-tetrahydrophthalazin-1(2H)-one] | 943 nM
CC(Cc1n[nH]c(=O)c2c1CCCC2)c1ccc(F)c(-c2cccc(C(=O)NC3CC3)c2)c1 (stereo not drawn) [Example 277, N-cyclopropyl-2′-fluoro-5′-(1-methyl-2-(4-oxo-3,4,5,6,7,8-hexahydrophthalazin-1-yl)ethyl)-1,1′-biphenyl-3-carboxamide] | 436 nM
Nc1cc(Cc2n[nH]c(=O)c3c2CCCC3)ccc1Cl [Example 278, 4-(3-amino-4-chlorobenzyl)-5,6,7,8-tetrahydrophthalazin-1(2H)-one] | 185 nM
COc1ccc(Cc2n[nH]c(=O)c3c2CCCC3)cc1N [Example 279, 4-(3-amino-4-methoxybenzyl)-5,6,7,8-tetrahydrophthalazin-1(2H)-one] | 467 nM
Nc1cc(Cc2n[nH]c(=O)c3c2CCCC3)ccc1O [Example 280, 4-(3-amino-4-hydroxybenzyl)-5,6,7,8-tetrahydrophthalazin-1(2H)-one] | 303 nM
Cc1ccc(Cc2n[nH]c(=O)c3c2CCCC3)cc1N [Example 281, 4-(3-amino-4-methylbenzyl)-5,6,7,8-tetrahydrophthalazin-1(2H)-one] | 309 nM
CC(Cc1n[nH]c(=O)c2c1CCCC2)c1cccc(-c2cccc(C(=O)NCCN(C)C)c2)c1 (stereo not drawn) [Example 282, N-(2-(dimethylamino)ethyl)-3′-(1-methyl-2-(4-oxo-3,4,5,6,7,8-hexahydrophthalazin-1-yl)ethyl)-1,1′-biphenyl-3-carboxamide] | 1710 nM
CC(Cc1n[nH]c(=O)c2c1CCCC2)c1cccc(-c2cccc(C(N)=O)c2)c1 (stereo not drawn) [Example 283, 3′-(1-methyl-2-(4-oxo-3,4,5,6,7,8-hexahydrophthalazin-1-yl)ethyl)-1,1′-biphenyl-3-carboxamide] | 442 nM
CC(=O)Nc1cccc(-c2cccc(C(C)Cc3n[nH]c(=O)c4c3CCCC4)c2)c1 (stereo not drawn) [Example 284, N-(3′-(1-methyl-2-(4-oxo-3,4,5,6,7,8-hexahydrophthalazin-1-yl)ethyl)-1,1′-biphenyl-3-yl)acetamide] | 2210 nM
